Results reported in patent US10119168B2, “Methods for the treatment of kidney fibrosis” (priority 2014, dated 2018).

System: mouse kidney
Test: RNA-seq of kidney gene expression over time in FA nephropathy progression (Table 1)
Format: in vivo
Excerpt: Identification of Candidate Genes for Biomarkers of Kidney Fibrosis Through RNA-Seq. […] To select genes that are indicative of fibrosis candidates were considered from this later group that had robust upregulation (>5-fold with >100 read counts at peak) over time as fibrosis progresses. Another important criteria was the location of the protein product of the gene, either in extracellular matrix or transmembrane, to increase the chance of detecting it in the urine and use it as a biomarker(11).
(§1) RNA samples (n=3 mice/time point) were sequenced at the Bioplymers Facility at the Harvard Medical School. Libraries were prepared from 10 ng total RNA per sample using the IntegenX Apollo 324 system and NuGEN SPIA reagents. Libraries were multiplexed in groups of three per lane of a flowcell and 50 cycle, paired-end sequencing was performed on an Illumina HiSeq2000 instrument. Illumina sequence quality was surveyed with FastQC (available on the world wide web at bioinformatics.babraham.ac.uk/projects/fastqc/) to ensure suitability of library generation and sequencing for further analysis. Adapters and lower quality bases were trimmed with Cutadapt (available on the world wide web at code.google.com/p/cutadapt/), using a Phred quality cutoff of 20, and reassessed with FastQC. Trimmed reads were aligned to the Ensembl NCBIM37 Mus musculus genome build with TopHat2. Aligned reads were summarized at the gene level against the Illumina iGenomes (available on the world wide web at tophat.cbcb.umd.edu/igenomes.html) NCBIM37 Mus musculus gene annotations using HTSeq (available on the world wide web at huber.embl.de/users/anders/HTSeq/doc/overview.html). […] The full dataset is available in the NCBI GEO database with the accession number GSE65267. Raw data is accessible on the world wide web at ncbi.nlm.nih.gov/geo/query/acc.cgi?acc=GSE65267.
Mice were sacrificed at 1, 2, 3, 7 and 14 days following administration. […] All mice were sacrificed at 14 days.
as §1, with “The quantity and quality of mRNA” for “RNA samples (n=3 mice/time point)”, “assayed on an Agilent 2200 TapeStation instrument and by SYBR qPCR assay.” for “sequenced at the Bioplymers Facility at the Harvard Medical School.”, “(https://code.google.com/p/cutadapt/),” for “(available on the world wide web at code.google.com/p/cutadapt/),”

Compound: Nc1nc2ncc(CNc3ccc(C(=O)N[C@@H](CCC(=O)O)C(=O)O)cc3)nc2c(=O)[nH]1 [FA, folic acid]
- 7SK RNA mean fold change from normal (Day 1): 0.04 fold
- 2310042D19Rik mean fold change from normal (Day 1): 0.09 fold
- 4930533I22Rik mean fold change from normal (Day 1): 0.11 fold
- 4933417A18Rik mean fold change from normal (Day 1): 0.04 fold
- 8430408G22Rik mean fold change from normal (Day 1): 0.09 fold
- 9030619P08Rik mean fold change from normal (Day 1): 0.01 fold
- Slc2a5 mean fold change from normal (Day 1): 0.07 fold
- Slc4a1 mean fold change from normal (Day 1): 0.11 fold
- Slc5a4a mean fold change from normal (Day 1): 0.02 fold
- Slc5a12 mean fold change from normal (Day 1): 0.06 fold
- Slc6a12 mean fold change from normal (Day 1): 0.02 fold
- Slc7a13 mean fold change from normal (Day 1): 0.02 fold
- Slc28a1 mean fold change from normal (Day 1): 0.02 fold
- Slc34a1 mean fold change from normal (Day 1): 0.05 fold
- Slc34a2 mean fold change from normal (Day 1): 11.81 fold
- Slc34a3 mean fold change from normal (Day 1): 0.05 fold
- Slc46a3 mean fold change from normal (Day 1): 0.11 fold
- Slco1a1 mean fold change from normal (Day 1): 0.18 fold
- Smoc2 mean fold change from normal (Day 1): 0.06 fold
- Smpdl3b mean fold change from normal (Day 1): 222.02 fold
- Snx31 mean fold change from normal (Day 1): 0.06 fold
- Socs1 mean fold change from normal (Day 1): 77.54 fold
- Sox4 mean fold change from normal (Day 1): 12.86 fold
- Sox9 mean fold change from normal (Day 1): 24.10 fold
- Spaca7 mean fold change from normal (Day 1): 27.30 fold
- Spink6 mean fold change from normal (Day 1): 46.74 fold
- Spp1 mean fold change from normal (Day 1): 113.22 fold
- Spred3 mean fold change from normal (Day 1): 6.01 fold
- Spsb1 mean fold change from normal (Day 1): 11.68 fold
- Spt1c3 mean fold change from normal (Day 1): 0.07 fold
- St8sia2 mean fold change from normal (Day 1): 3.07 fold
- Stil mean fold change from normal (Day 1): 13.84 fold
- Stk32a mean fold change from normal (Day 1): 10.38 fold
- Stra6 mean fold change from normal (Day 1): 1.19 fold
- Susd2 mean fold change from normal (Day 1): 0.18 fold
- Sycn mean fold change from normal (Day 1): 0.07 fold
- Synpr mean fold change from normal (Day 1): 0.23 fold
- Sytl2 mean fold change from normal (Day 1): 3.75 fold
- Tagln2 mean fold change from normal (Day 1): 8.92 fold
- Tbx10 mean fold change from normal (Day 1): 0.06 fold
- Timd2 mean fold change from normal (Day 1): 7.27 fold
- Timp1 mean fold change from normal (Day 1): 175.24 fold
- Tlr2 mean fold change from normal (Day 1): 6.43 fold
- Tmem25 mean fold change from normal (Day 1): 0.11 fold
- Tmem26 mean fold change from normal (Day 1): 0.10 fold
- Tmem207 mean fold change from normal (Day 1): 0.01 fold
- Tmsb10 mean fold change from normal (Day 1): 19.04 fold
- Tnc mean fold change from normal (Day 1): 13.27 fold
- Tnfaip3 mean fold change from normal (Day 1): 1.97 fold
- Tnfrsf23 mean fold change from normal (Day 1): 18.16 fold
- Top2a mean fold change from normal (Day 1): 5.38 fold
- Tpx2 mean fold change from normal (Day 1): 3.87 fold
- Tril mean fold change from normal (Day 1): 0.07 fold
- Tsc22d1 mean fold change from normal (Day 1): 8.11 fold
- Ttc36 mean fold change from normal (Day 1): 0.04 fold
- Ttr mean fold change from normal (Day 1): 0.05 fold
- Tyrobp mean fold change from normal (Day 1): 1.26 fold
- Ugt3a1 mean fold change from normal (Day 1): 0.18 fold
- Uhrf1 mean fold change from normal (Day 1): 16.90 fold
- Upp2 mean fold change from normal (Day 1): 0.25 fold
- Vcam1 mean fold change from normal (Day 1): 13.66 fold
- Vill mean fold change from normal (Day 1): 0.09 fold
- Vmn1r18 mean fold change from normal (Day 1): 0.02 fold
- Vmn1r19 mean fold change from normal (Day 1): 0.03 fold
- Vmn1r20 mean fold change from normal (Day 1): 0.02 fold
- Vmn1r-ps11 mean fold change from normal (Day 1): 0.02 fold
- Vstm2a mean fold change from normal (Day 1): 0.04 fold
- Vtcn1 mean fold change from normal (Day 1): 64.93 fold
- Vwce mean fold change from normal (Day 1): 0.06 fold
- Wfdc15b mean fold change from normal (Day 1): 0.02 fold
- Ybx2 mean fold change from normal (Day 1): 0.08 fold
- 7SK RNA mean fold change from normal (Day 2): 0.04 fold
- 2310042D19Rik mean fold change from normal (Day 2): 0.08 fold
- 4930533I22Rik mean fold change from normal (Day 2): 0.09 fold
- 4933417A18Rik mean fold change from normal (Day 2): 0.07 fold
- 8430408G22Rik mean fold change from normal (Day 2): 0.23 fold
- 9030619P08Rik mean fold change from normal (Day 2): 0.05 fold
- Slc2a5 mean fold change from normal (Day 2): 0.09 fold
- Slc4a1 mean fold change from normal (Day 2): 0.09 fold
- Slc5a4a mean fold change from normal (Day 2): 0.37 fold
- Slc5a12 mean fold change from normal (Day 2): 0.34 fold
- Slc6a12 mean fold change from normal (Day 2): 0.13 fold
- Slc7a13 mean fold change from normal (Day 2): 0.02 fold
- Slc28a1 mean fold change from normal (Day 2): 0.19 fold
- Slc34a1 mean fold change from normal (Day 2): 0.11 fold
- Slc34a2 mean fold change from normal (Day 2): 16.20 fold
- Slc34a3 mean fold change from normal (Day 2): 0.05 fold
- Slc46a3 mean fold change from normal (Day 2): 0.36 fold
- Slco1a1 mean fold change from normal (Day 2): 0.16 fold
- Smoc2 mean fold change from normal (Day 2): 0.06 fold
- Smpdl3b mean fold change from normal (Day 2): 124.22 fold
- Snx31 mean fold change from normal (Day 2): 0.05 fold
- Socs1 mean fold change from normal (Day 2): 53.23 fold
- Sox4 mean fold change from normal (Day 2): 13.93 fold
- Sox9 mean fold change from normal (Day 2): 49.89 fold
- Spaca7 mean fold change from normal (Day 2): 74.80 fold
- Spink6 mean fold change from normal (Day 2): 13.93 fold
- Spp1 mean fold change from normal (Day 2): 174.85 fold
- Spred3 mean fold change from normal (Day 2): 11.03 fold
- Spsb1 mean fold change from normal (Day 2): 13.04 fold
- Spt1c3 mean fold change from normal (Day 2): 0.11 fold
- St8sia2 mean fold change from normal (Day 2): 2.10 fold
- Stil mean fold change from normal (Day 2): 32.74 fold
- Stk32a mean fold change from normal (Day 2): 7.59 fold
- Stra6 mean fold change from normal (Day 2): 1.95 fold
- Susd2 mean fold change from normal (Day 2): 0.07 fold
- Sycn mean fold change from normal (Day 2): 0.07 fold
- Synpr mean fold change from normal (Day 2): 0.02 fold
- Sytl2 mean fold change from normal (Day 2): 5.53 fold
- Tagln2 mean fold change from normal (Day 2): 6.40 fold
- Tbx10 mean fold change from normal (Day 2): 0.10 fold
- Timd2 mean fold change from normal (Day 2): 2.97 fold
- Timp1 mean fold change from normal (Day 2): 194.76 fold
- Tlr2 mean fold change from normal (Day 2): 12.76 fold
- Tmem25 mean fold change from normal (Day 2): 0.34 fold
- Tmem26 mean fold change from normal (Day 2): 0.07 fold
- Tmem207 mean fold change from normal (Day 2): 0.02 fold
- Tmsb10 mean fold change from normal (Day 2): 18.72 fold
- Tnc mean fold change from normal (Day 2): 9.63 fold
- Tnfaip3 mean fold change from normal (Day 2): 3.85 fold
- Tnfrsf23 mean fold change from normal (Day 2): 7.62 fold
- Top2a mean fold change from normal (Day 2): 15.75 fold
- Tpx2 mean fold change from normal (Day 2): 10.97 fold
- Tril mean fold change from normal (Day 2): 0.43 fold
- Tsc22d1 mean fold change from normal (Day 2): 6.92 fold
- Ttc36 mean fold change from normal (Day 2): 0.10 fold
- Ttr mean fold change from normal (Day 2): 0.04 fold
- Tyrobp mean fold change from normal (Day 2): 1.65 fold
- Ugt3a1 mean fold change from normal (Day 2): 0.07 fold
- Uhrf1 mean fold change from normal (Day 2): 31.75 fold
- Upp2 mean fold change from normal (Day 2): 0.11 fold
- Vcam1 mean fold change from normal (Day 2): 30.80 fold
- Vill mean fold change from normal (Day 2): 0.28 fold
- Vmn1r18 mean fold change from normal (Day 2): 0.01 fold
- Vmn1r19 mean fold change from normal (Day 2): 0.02 fold
- Vmn1r20 mean fold change from normal (Day 2): 0.34 fold
- Vmn1r-ps11 mean fold change from normal (Day 2): 0.03 fold
- Vstm2a mean fold change from normal (Day 2): 0.05 fold
- Vtcn1 mean fold change from normal (Day 2): 44.16 fold
- Vwce mean fold change from normal (Day 2): 0.08 fold
- Wfdc15b mean fold change from normal (Day 2): 0.05 fold
- Ybx2 mean fold change from normal (Day 2): 0.12 fold
- 7SK RNA mean fold change from normal (Day 3): 0.08 fold
- 2310042D19Rik mean fold change from normal (Day 3): 0.47 fold
- 4930533I22Rik mean fold change from normal (Day 3): 0.22 fold
- 4933417A18Rik mean fold change from normal (Day 3): 0.49 fold
- 8430408G22Rik mean fold change from normal (Day 3): 0.34 fold
- 9030619P08Rik mean fold change from normal (Day 3): 0.02 fold
- Slc2a5 mean fold change from normal (Day 3): 0.21 fold
- Slc4a1 mean fold change from normal (Day 3): 0.18 fold
- Slc5a4a mean fold change from normal (Day 3): 0.51 fold
- Slc5a12 mean fold change from normal (Day 3): 0.38 fold
- Slc6a12 mean fold change from normal (Day 3): 0.26 fold
- Slc7a13 mean fold change from normal (Day 3): 0.11 fold
- Slc28a1 mean fold change from normal (Day 3): 0.18 fold
- Slc34a1 mean fold change from normal (Day 3): 0.33 fold
- Slc34a2 mean fold change from normal (Day 3): 7.59 fold
- Slc34a3 mean fold change from normal (Day 3): 0.09 fold
- Slc46a3 mean fold change from normal (Day 3): 0.57 fold
- Slco1a1 mean fold change from normal (Day 3): 0.19 fold
- Smoc2 mean fold change from normal (Day 3): 1.83 fold
- Smpdl3b mean fold change from normal (Day 3): 111.13 fold
- Snx31 mean fold change from normal (Day 3): 0.07 fold
- Socs1 mean fold change from normal (Day 3): 43.48 fold
- Sox4 mean fold change from normal (Day 3): 11.69 fold
- Sox9 mean fold change from normal (Day 3): 52.43 fold
- Spaca7 mean fold change from normal (Day 3): 18.32 fold
- Spink6 mean fold change from normal (Day 3): 9.16 fold
- Spp1 mean fold change from normal (Day 3): 63.01 fold
- Spred3 mean fold change from normal (Day 3): 8.99 fold
- Spsb1 mean fold change from normal (Day 3): 4.64 fold
- Spt1c3 mean fold change from normal (Day 3): 1.02 fold
- St8sia2 mean fold change from normal (Day 3): 10.17 fold
- Stil mean fold change from normal (Day 3): 10.68 fold
- Stk32a mean fold change from normal (Day 3): 5.33 fold
- Stra6 mean fold change from normal (Day 3): 8.56 fold
- Susd2 mean fold change from normal (Day 3): 0.32 fold
